ChEMBL document CHEMBL4177619, “Novel potentially antifungal hybrids of 5-flucytosine and fluconazole: Design, synthesis and bioactive evaluation” (2017)
In brackets after ≈: the same amount, converted by molar mass. Activity calls are given as the source filed them. No cut-off for these calls is given here.

Legend:
[1] = test system: Candida tropicalis; assay: Antifungal activity against Candida tropicalis after 24 hrs by micro broth dilution method; format: functional
[2] = test system: Candida parapsilosis; assay: Antifungal activity against Candida parapsilosis ATCC 22019 after 24 hrs by micro broth dilution method; format: functional; conditions: Lodderomyces parapsilosis, ATCC 22019, 24 h
[3] = test system: Aspergillus fumigatus; assay: Antifungal activity against Aspergillus fumigatus after 24 hrs by micro broth dilution method; format: functional
[4] = test system: Candida albicans; assay: Antifungal activity against Candida albicans ATCC 90023 after 24 hrs by micro broth dilution method; format: functional; conditions: ATCC 90023, 24 h
[5] = test system: Candida albicans; assay: Antifungal activity against Candida albicans after 24 hrs by micro broth dilution method; format: functional
[6] = test system: Calf thymus DNA; assay: Binding affinity to calf thymus DNA assessed as hyperchromic effect up to 2 x 10^-5mol/L by UV-Visible spectrometric analysis; format: nucleic-acid assay; conditions: Bos taurus
[7] = test system: Calf thymus DNA; assay: Binding affinity to calf thymus DNA assessed as increase in maximum absorption of DNA by UV-Visible spectrometric analysis; format: nucleic-acid assay; conditions: Bos taurus
[8] = test system: Candida albicans; assay: Potency index, ratio of 5-fluorocytosine MIC80 to compound MIC80 for Candida albicans; format: functional
[9] = test system: Calf thymus DNA; assay: Inhibition of neutral red binding to calf thymus DNA by UV-Visible spectrometric analysis; format: nucleic-acid assay; conditions: Bos taurus
[10] = test system: Candida albicans; assay: Induction of inner membrane permeabilization in Candida albicans assessed as propidium iodide uptake at 12 times MIC up to 105 mins by fluorescence assay; format: functional, organism-based
[11] = test system: Candida albicans; assay: Fungicidal activity against Candida albicans assessed as log reduction in fungal load at 4 time MIC up to 1 hr by time kill assay; format: functional
[12] = test system: Candida albicans; assay: Potency index, ratio of fluconazole MIC80 to compound MIC80 for Candida albicans; format: functional

| SMILES | MIC80 [1] | MIC80 [2] | MIC80 [3] | MIC80 [4] | MIC80 [5] | Activity [6] | Activity [7] | K [7] | Ratio [8] | inhibition [9] | Activity [10] | Activity [11] | Ratio [12] |
| --- | --- | --- | --- | --- | --- | --- | --- | --- | --- | --- | --- | --- | --- |
| CCCCCCCCN(CC(O)(Cn1cncn1)c1ccc(F)cc1F)c1nc(=O)[nH]cc1F (stereo not drawn) | 1060 µM (≈ 507 µg/mL) | 530 µM (≈ 254 µg/mL) | 2130 µM (≈ 1020 µg/mL) | 530 µM (≈ 254 µg/mL) | 1060 µM (≈ 507 µg/mL) | – | – | – | – | – | – | – | – |
| C=CCN(CC(O)(Cn1cncn1)c1ccc(F)cc1F)c1nc(=O)[nH]cc1F (stereo not drawn) | 620 µM (≈ 252 µg/mL) | 1250 µM (≈ 508 µg/mL) | 620 µM (≈ 252 µg/mL) | 620 µM (≈ 252 µg/mL) | 310 µM (≈ 126 µg/mL) | – | – | – | – | – | – | – | – |
| O=c1nc(N(Cc2ccccc2F)CC(O)(Cn2cncn2)c2ccc(F)cc2F)c(F)c[nH]1 (stereo not drawn) | 530 µM (≈ 251 µg/mL) | 530 µM (≈ 251 µg/mL) | 530 µM (≈ 251 µg/mL) | 530 µM (≈ 251 µg/mL) | 260 µM (≈ 123 µg/mL) | – | – | – | – | – | – | – | – |
| OC(Cn1cncn1)(Cn1cncn1)c1ccc(F)cc1F [FLUCONAZOLE] | 830 µM (≈ 254 µg/mL) | 6 µM (≈ 1.84 µg/mL) | 1650 µM (≈ 505 µg/mL) | 3 µM (≈ 0.919 µg/mL) | 200 µM (≈ 61.3 µg/mL) | – | – | – | – | – | – | – | – |
| CCCCCN(CC(O)(Cn1cncn1)c1ccc(F)cc1F)c1nc(=O)[nH]cc1F (stereo not drawn) | 290 µM (≈ 127 µg/mL) | 1170 µM (≈ 511 µg/mL) | 580 µM (≈ 253 µg/mL) | 580 µM (≈ 253 µg/mL) | 580 µM (≈ 253 µg/mL) | – | – | – | – | – | – | – | – |
| O=c1nc(N(Cc2ccc(Cl)cc2Cl)CC(O)(Cn2cncn2)c2ccc(F)cc2F)c(F)c[nH]1 (stereo not drawn) | 120 µM (≈ 63 µg/mL) | 480 µM (≈ 252 µg/mL) | 240 µM (≈ 126 µg/mL) | 120 µM (≈ 63 µg/mL) | 240 µM (≈ 126 µg/mL) | – | – | – | – | – | – | – | – |
| CCCCCCCCCCCCN(CC(O)(Cn1cncn1)c1ccc(F)cc1F)c1nc(=O)[nH]cc1F (stereo not drawn) | 950 µM (≈ 508 µg/mL) | 950 µM (≈ 508 µg/mL) | 1910 µM (≈ 1020 µg/mL) | 1910 µM (≈ 1020 µg/mL) | 950 µM (≈ 508 µg/mL) | – | – | – | – | – | – | – | – |
| O=c1nc(N(Cc2ccccc2)CC(O)(Cn2cncn2)c2ccc(F)cc2F)c(F)c[nH]1 (stereo not drawn) | 280 µM (≈ 128 µg/mL) | 280 µM (≈ 128 µg/mL) | 140 µM (≈ 63.9 µg/mL) | 280 µM (≈ 128 µg/mL) | 280 µM (≈ 128 µg/mL) | – | – | – | – | – | – | – | – |
| CCN(CC(O)(Cn1cncn1)c1ccc(F)cc1F)c1nc(=O)[nH]cc1F (stereo not drawn) | 640 µM (≈ 252 µg/mL) | 320 µM (≈ 126 µg/mL) | 640 µM (≈ 252 µg/mL) | 320 µM (≈ 126 µg/mL) | 160 µM (≈ 63.1 µg/mL) | – | – | – | – | – | – | – | – |
| CCCCCCCCCCCCCCCCN(CC(O)(Cn1cncn1)c1ccc(F)cc1F)c1nc(=O)[nH]cc1F (stereo not drawn) | 860 µM (≈ 508 µg/mL) | 860 µM (≈ 508 µg/mL) | 1770 µM (≈ 1050 µg/mL) | 1730 µM (≈ 1020 µg/mL) | 860 µM (≈ 508 µg/mL) | – | – | – | – | – | – | – | – |
| C#CCN(CC(O)(Cn1cncn1)c1ccc(F)cc1F)c1nc(=O)[nH]cc1F (stereo not drawn) | 630 µM (≈ 255 µg/mL) | 1260 µM (≈ 509 µg/mL) | 630 µM (≈ 255 µg/mL) | 1260 µM (≈ 509 µg/mL) | 310 µM (≈ 125 µg/mL) | – | – | – | – | – | – | – | – |
| CCCCN(CC(O)(Cn1cncn1)c1ccc(F)cc1F)c1nc(=O)[nH]cc1F (stereo not drawn) | 600 µM (≈ 253 µg/mL) | 300 µM (≈ 127 µg/mL) | 600 µM (≈ 253 µg/mL) | 300 µM (≈ 127 µg/mL) | 300 µM (≈ 127 µg/mL) | – | – | – | – | – | – | – | – |
| O=c1nc(N(Cc2cccc(Cl)c2)CC(O)(Cn2cncn2)c2ccc(F)cc2F)c(F)c[nH]1 (stereo not drawn) | 520 µM (≈ 255 µg/mL) | 260 µM (≈ 128 µg/mL) | 130 µM (≈ 63.8 µg/mL) | 130 µM (≈ 63.8 µg/mL) | 130 µM (≈ 63.8 µg/mL) | – | – | – | – | – | – | – | – |
| CCCN(CC(O)(Cn1cncn1)c1ccc(F)cc1F)c1nc(=O)[nH]cc1F (stereo not drawn) | 620 µM (≈ 253 µg/mL) | 620 µM (≈ 253 µg/mL) | 620 µM (≈ 253 µg/mL) | 310 µM (≈ 127 µg/mL) | 310 µM (≈ 127 µg/mL) | – | – | – | – | – | – | – | – |
| O=c1nc(N(Cc2ccc(Cl)cc2)CC(O)(Cn2cncn2)c2ccc(F)cc2F)c(F)c[nH]1 (stereo not drawn) | 130 µM (≈ 63.8 µg/mL) | 130 µM (≈ 63.8 µg/mL) | 130 µM (≈ 63.8 µg/mL) | 130 µM (≈ 63.8 µg/mL) | 130 µM (≈ 63.8 µg/mL) | – | – | – | – | – | – | – | – |
| CCCCCCN(CC(O)(Cn1cncn1)c1ccc(F)cc1F)c1nc(=O)[nH]cc1F (stereo not drawn) | 1130 µM (≈ 509 µg/mL) | 280 µM (≈ 126 µg/mL) | 560 µM (≈ 252 µg/mL) | 560 µM (≈ 252 µg/mL) | 560 µM (≈ 252 µg/mL) | – | – | – | – | – | – | – | – |
| O=c1nc(N(Cc2ccc(Cl)c(Cl)c2)CC(O)(Cn2cncn2)c2ccc(F)cc2F)c(F)c[nH]1 (stereo not drawn) | 30 µM (≈ 15.8 µg/mL) | 30 µM (≈ 15.8 µg/mL) | 30 µM (≈ 15.8 µg/mL) | 8 µM (≈ 4.2 µg/mL) | 20 µM (≈ 10.5 µg/mL) | Active | Dose-dependent effect | 4.88 ×10³ L/mol | 8 | Dose-dependent effect | Active | >3 log10CFU/ml | 8 |
| O=c1nc(N(Cc2ccccc2Cl)CC(O)(Cn2cncn2)c2ccc(F)cc2F)c(F)c[nH]1 (stereo not drawn) | 260 µM (≈ 128 µg/mL) | 520 µM (≈ 255 µg/mL) | 260 µM (≈ 128 µg/mL) | 260 µM (≈ 128 µg/mL) | 130 µM (≈ 63.8 µg/mL) | – | – | – | – | – | – | – | – |
| O=c1nc(N(Cc2ccc(F)cc2)CC(O)(Cn2cncn2)c2ccc(F)cc2F)c(F)c[nH]1 (stereo not drawn) | 530 µM (≈ 251 µg/mL) | 530 µM (≈ 251 µg/mL) | 260 µM (≈ 123 µg/mL) | 530 µM (≈ 251 µg/mL) | 260 µM (≈ 123 µg/mL) | – | – | – | – | – | – | – | – |
| Nc1nc(=O)[nH]cc1F [FLUCYTOSINE] | 1980 µM (≈ 256 µg/mL) | 990 µM (≈ 128 µg/mL) | 1980 µM (≈ 256 µg/mL) | 30 µM (≈ 3.87 µg/mL) | 490 µM (≈ 63.3 µg/mL) | – | – | – | – | – | – | – | – |
| O=c1nc(NCC(O)(Cn2cncn2)c2ccc(F)cc2F)c(F)c[nH]1 (stereo not drawn) | 40 µM (≈ 14.7 µg/mL) | 170 µM (≈ 62.3 µg/mL) | 80 µM (≈ 29.3 µg/mL) | 170 µM (≈ 62.3 µg/mL) | 170 µM (≈ 62.3 µg/mL) | – | – | – | – | – | – | – | – |
| CCCCCCCCCCN(CC(O)(Cn1cncn1)c1ccc(F)cc1F)c1nc(=O)[nH]cc1F (stereo not drawn) | 1010 µM (≈ 512 µg/mL) | 1010 µM (≈ 512 µg/mL) | 2020 µM (≈ 1020 µg/mL) | 2020 µM (≈ 1020 µg/mL) | 1010 µM (≈ 512 µg/mL) | – | – | – | – | – | – | – | – |
